Measured values from US12544373B2, “Treatment of cancer, inflammatory diseases and autoimmune diseases” (Usher III Initiative, Inc., priority 2020, dated 2026).
Read-outs that look alike come from different tables or passages of the source.

Legend:
Assay type in all cases: cell-based, human
PAXF 1657 = experiment: CellTiter-Blue 2D monolayer assay (Example 1), pancreas; settings: for Test/Control (%): 72 h
Procedure: (§1) Compound 85 was assessed in 10 human tumor cell lines (see Table 3) for anti-cancer activity in vitro using a CellTiter-Blue® based 2D monolayer assay.
(§2) CellTiter-Blue® Cell Viability Assay: Tumor cells were grown at 37° C. in a humidified atmosphere with 5% CO2 in RPMI medium, supplemented with 10% (v/v) fetal calf serum and 50 μg/ml gentamicin (140 μl/well). Cultures were incubated at 37° C. and 5% CO2 in a humidified atmosphere. After 24 hours, 10 μl of Compound 85 was added, and left on the cells for another 72 hours (incubation period). Compound 85 was tested at 5 concentrations (0.003 μM, 0.03 μM, 0.3 μM, 3 μM, and 30 μM) and serially diluted in DMSO, mixed with cell culture medium, and added to the assay plates by using a Tecan Freedom EVO 200 robotic platform. The DMSO concentration was kept constant at 0.3% yip across the assay plate. Every 96 well plate included six DMSO-treated control wells and Compound 85-treated wells in duplicate at 5 concentrations. Viability of cells was quantified using the CellTiter-Blue® cell viability assay (Promega G8081). After incubation of cells, the CellTiter-Blue® reagent was brought to ambient temperature. Next, 20 μl of CellTiter-Blue® reagent were added to each well. After incubation tier up to 4 hours, fluorescence (FU) was measured using the EnSpire® multimode plate reader (Perkin Elmer) ([…]).
(§3) Data Evaluation: Sigmoidal concentration-response curves were fitted to the data points (test-versus-control; T/C values) obtained for each tumor model using 4 parameter non-linear curve fit (Charles River DRS Datawarehouse Software). Drug effects are expressed in terms of the percentage of the fluorescence signal, obtained by comparison of the mean signal in the treated wells with the mean signal of the untreated controls (T/C-value [%]) (Table 4). IC50 and IC70 values were reported as relative and absolute IC50 and IC70 values (Table 5). The absolute IC50 and IC70 values reflect the concentration of Compound 85 that achieves T/C=50% and T/C=30%, respectively. The relative IC50 value is the concentration of Compound 85 that gives a response half way between the top and bottom plateau of the sigmoidal concentration-response curve (inflection point of the curve).

PAXF HUP-T3 = experiment: as above; settings: for Test/Control (%): 72 h
Procedure: as §1, §2, §3

OVXF 899 = experiment: CellTiter-Blue 2D monolayer assay (Example 1), ovarian; settings: for Test/Control (%): 72 h
Procedure: as §1, §2, §3

OVXF A2780 = experiment: as above; settings: for Test/Control (%): 72 h
Procedure: as §1, §2, §3

SXFO 678 = experiment: CellTiter-Blue Cell Viability Assay (Example 2), osteosarcoma; settings: for T/C %: 72 h
From the text: (§4) The CellTiter-Blue® Cell Viability Assay was used to assess the viability of cells from various cancer cell lines, in the presence or absence of Compound 85 (at different concentrations). This assay provides a homogeneous, fluorometric method for estimating the number of viable cells present in multi-well plates. Viable cells retain the ability to reduce resazurin to resorufin, which is highly fluorescent. […] The fluorescence produced is proportional to the number of viable cells. There is a linear relationship between cell number and fluorescence.
(§5) Cancer cells (see Table 6) were harvested from exponential phase cultures, counted and plated in 96 well flat-bottom microtiter plates, at a cell density 6,000-20,000 cells/well, depending on the cell line's growth rate. The culture medium was supplemented with 10% (v/v) foetal calf serum and 50 μg/mL gentamicin (140 μL/well). Cultures were incubated at 37° C. and 5% CO2 in a humidified atmosphere.
(§6) Compound 85 was serially diluted in DMSO, and five Compound 85 concentrations in half-log increments were used: 0.03 μM, 0.09 μM, 0.30 μM, 1.0 μM, and 3.0 μM. After 24 h, 10 μL of Compound 85 (dissolved in DMSO) or control (DMSO) medium were added, in duplicates, and left on the cells for another 72 h. Compound 85 solutions were added to the assay plates using a Tecan Freedom EVO 200 robotic platform. The DMSO concentration was kept constant at 0.3% v/v across the assay plate.
(§7) After incubation of up to 72 hours, fluorescence (FU) was measured using the EnSpire® multimode plate reader (Perkin Elmer) (excitation λ=570 nm, emission λ=600 nm).
(§8) Cancer cell lines used: Compound 85's anti-cancer effect was tested in 20 human cancer-cell lines representing nine cancer types (Table 6).
(§9) The percentage of viable cells in the presence of Compound 85 (Test condition, T), at different concentrations, are presented in Table 7 and expressed as a percentage of the number of viable cells in the presence of DMSO without Compound 85 (Control condition, C).
(§10) The relative IC50 is determined as the Compound 85 concentration giving a response halfway between the maximum cell viability signal (i.e., a 100% cell viability, no Compound 85 response) and the minimal viability signal (i.e. maximum cell viability inhibition achieved by Compound 85), in a sigmoidal concentration-effect curve.
(§11) The absolute IC50 is determined as the concentration that is associated with a T/C ratio of 50%.

SXFO Saos-2 = experiment: as above; settings: for T/C %: 72 h
From the text: as §4, §5, §6, §7, §8, §9, §10, §11

CC(C)(O)Cn1nc(-c2ccccc2)c2c(Cl)c(-c3ccccc3)nnc21 [Compound 85]
Rel. IC70 (PAXF 1657): 2.043 µM
Test/Control (%) (PAXF 1657; 0.003 μM): 100%
Test/Control (%) (PAXF 1657; 0.03 μM): 100%
Test/Control (%) (PAXF 1657; 0.3 μM): 100%
Test/Control (%) (PAXF 1657; 3 μM): 3%
Test/Control (%) (PAXF 1657; 30 μM): 1%
Abs. IC70 (PAXF 1657; T/C=30%): 2.055 µM
IC50 (PAXF 1657; T/C=50%, read-out: Abs. IC50): 1.85 µM
Bot. (%) (PAXF 1657; bottom plateau of curve): 1%
IC50 (PAXF 1657; read-out: Rel. IC50): 1.84 µM
Top (%) (PAXF 1657; top plateau of curve): 100%
Rel. IC70 (PAXF HUP-T3): 1.505 µM
Test/Control (%) (PAXF HUP-T3; 0.003 μM): 100%
Test/Control (%) (PAXF HUP-T3; 0.03 μM): 101%
Test/Control (%) (PAXF HUP-T3; 0.3 μM): 79%
Test/Control (%) (PAXF HUP-T3; 3 μM): 16%
Test/Control (%) (PAXF HUP-T3; 30 μM): 6%
Abs. IC70 (PAXF HUP-T3; T/C=30%): 1.518 µM
IC50 (PAXF HUP-T3; T/C=50%, read-out: Abs. IC50): 0.794 µM
Bot. (%) (PAXF HUP-T3; bottom plateau of curve): 0%
IC50 (PAXF HUP-T3; read-out: Rel. IC50): 0.785 µM
Top (%) (PAXF HUP-T3; top plateau of curve): 101%
Rel. IC70 (OVXF 899): 0.739 µM
Test/Control (%) (OVXF 899; 0.003 μM): 108%
Test/Control (%) (OVXF 899; 0.03 μM): 106%
Test/Control (%) (OVXF 899; 0.3 μM): 86%
Test/Control (%) (OVXF 899; 3 μM): 2%
Test/Control (%) (OVXF 899; 30 μM): 1%
Abs. IC70 (OVXF 899; T/C=30%): 0.775 µM
IC50 (OVXF 899; T/C=50%, read-out: Abs. IC50): 0.553 µM
Bot. (%) (OVXF 899; bottom plateau of curve): 1%
IC50 (OVXF 899; read-out: Rel. IC50): 0.522 µM
Top (%) (OVXF 899; top plateau of curve): 107%
Rel. IC70 (OVXF A2780): 1.872 µM
Test/Control (%) (OVXF A2780; 0.003 μM): 101%
Test/Control (%) (OVXF A2780; 0.03 μM): 94%
Test/Control (%) (OVXF A2780; 0.3 μM): 101%
Test/Control (%) (OVXF A2780; 3 μM): 1%
Test/Control (%) (OVXF A2780; 30 μM): 0%
Abs. IC70 (OVXF A2780; T/C=30%): 1.868 µM
IC50 (OVXF A2780; T/C=50%, read-out: Abs. IC50): 1.69 µM
Bot. (%) (OVXF A2780; bottom plateau of curve): 0%
IC50 (OVXF A2780; read-out: Rel. IC50): 1.7 µM
Top (%) (OVXF A2780; top plateau of curve): 99%
Absolute IC70 (SXFO 678): 0.532 µM
Relative IC70 (SXFO 678): 0.531 µM
T/C % (SXFO 678; 0.03 μM): 101%
T/C % (SXFO 678; 0.095 μM): 97%
T/C % (SXFO 678; 0.3 μM): 91%
T/C % (SXFO 678; 0.95 μM): 2%
T/C % (SXFO 678; 3.0 μM): 1%
IC50 (SXFO 678; read-out: Absolute IC50): 0.458 µM
IC50 (SXFO 678; read-out: Relative IC50): 0.458 µM
Absolute IC70 (SXFO Saos-2): 0.747 µM
Relative IC70 (SXFO Saos-2): 0.75 µM
T/C % (SXFO Saos-2; 0.03 μM): 97%
T/C % (SXFO Saos-2; 0.095 μM): 93%
T/C % (SXFO Saos-2; 0.3 μM): 99%
T/C % (SXFO Saos-2; 0.95 μM): 1%
T/C % (SXFO Saos-2; 3.0 μM): 0%
IC50 (SXFO Saos-2; read-out: Absolute IC50): 0.709 µM
IC50 (SXFO Saos-2; read-out: Relative IC50): 0.712 µM
